Laboratory results from paper PMC9852552, “Emission of floral volatiles is facilitated by cell-wall non-specific lipid transfer proteins” (Nature Communications, 2023).
Values joined by “and” are separate entries in the source; they are usually repeats but may differ in a detail not shown here. Identical values can stand only once. Like-named read-outs stand apart in the source and are kept apart here.

Legend:
recombinant PhnsLTP2 = test: TNS displacement assay with recombinant PhnsLTP2; format: binding, Petunia hybrida; settings: PhnsLTP2 1 µM, TNS 3 µM; non-linear fitting to Michaelis-Menten equation; means ± S.E., n = 3; read-out: dissociation constant Kd (PhnsLTP2)
Description: (§1) To directly test whether PhnsLTP3 can bind petunia VOCs, in vitro displacement assays were performed using the recombinant PhnsLTP3 protein and fluorescent 6-(p-toluidino)−2-naphthalenesulfonate (TNS) in the presence of petunia volatiles. […] TNS fluoresces strongly when bound to the hydrophobic regions of the protein, while it has weak fluorescence in an aqueous solution. […] Potential ligands of the protein will displace the bound TNS from the hydrophobic protein pocket into the aqueous environment leading to a decrease in the fluorescent signal, which was used to calculate the dissociation constant of the protein with ligand. […] To test whether PhnsLTP2 and PhnsLTP3 can bind other VOCs, we assayed the terpenoids: limonene, linalool, and nerolidol, as well as methyl jasmonate in TNS displacement assays. Both PhnsLTP2 and PhnsLTP3 were able to bind tested volatile compounds with Kds in the micromolar range (Supplementary Figs. 16 and 17).
(§2) The fluorescence-based-binding assays were performed largely according to previous publications[12],[52] with slight modifications. […] All mixtures were excited at 320 nm, and the fluorescence emission at 437 nm was recorded using a plate reader (SpectraMax iD3, Molecular Devices) at equilibrium after 5 min of incubation at 25 °C giving the background fluorescence Fmix0 and FTNS0 . The tested ligands dissolved in 2 µL DMSO were then added to the mixtures and TNS only to different final concentrations, and the fluorescence emissions were recorded at equilibrium after 5 min of incubation ( Fmixligand and FTNSligand ). To account for the change in the TNS fluorescence intensity upon adding the solvent DMSO, the background fluorescence of TNS ( FTNSsol ) as well as each PhnsLTP with TNS ( Fmixsol ) were measured. The ratios RTNS=FTNSsol/FTNS0 and Rmix=Fmixsol/Fmix0 were calculated to calibrate the fluorescence. Three measurements were taken for each concentration. The results were expressed as a percentage of fluorescence quenched Fmixligand/Rmix−FTNSligand/RTNS/Fmix0−FTNS0×100% . The corresponding dissociation constants kd were obtained by non-linear regression fitting of the binding kinetics to the Michaelis-Menten equation.
Supplementary Figure 16 | Binding kinetics of recombinant PhnsLTP2 with phenylpropanoids/benzenoids by petunia flowers, terpenoids and methyl jasmonate.
TNS displacement assays were performed at fixed concentrations of PhnsLTP2 (1 µM) and TNS (3 µM) and the fluorescence was measured before and after the tested compounds were added at various concentrations. The results are expressed as percentage of fluorescence quenched with respect to the concentration of added compound. The binding curves were obtained by non-linear fitting to the Michaelis-Menten equation (solid line in the graph) and the dissociation constants Kd [µM] were obtained. Phenylacetaldehyde, eugenol, and […]
corresponding binding curves. All data are means ±S.E. (n = 3 biological replicates).

recombinant PhnsLTP3 = test: TNS displacement assay with recombinant PhnsLTP3; format: binding, Petunia hybrida; settings: for Kd / Percentage fluorescence quenched: PhnsLTP3 1 µM, TNS 3 µM; for Kd: means ± S.E., n = 3; for Percentage fluorescence quenched: three biological replicates (c2-c4); for Percentage fluorescence quenched (%): biological replicates 1-3, Supplementary Figure 16
Description: as §1
Fig. 5 Binding kinetics of recombinant PhnsLTP3 with VOCs emitted by petunia flowers. TNS displacement assays were performed at fixed concentrations of PhnsLTP3 (1 µM) and TNS (3 µM) and the fluorescence was measured before and after the tested compounds were added at various concentrations. The results are expressed as percentage of fluorescence quenched with respect to the concentration of added compound. The binding curves were obtained by non-linear fitting to the Michaelis-Menten equation (solid line in the graph) and the dissociation constants Kd [µM] were obtained. […] All data are means ± S.E. (n = 3 biological replicates).
as §2
The binding curves of PhnsLTP3 with various VOC compounds were obtained by non-linear fitting to the one-binding-site (Eq. (1)) and two-binding-site (Eq. (2)) models. The equations assume that the ligand binds to multiple independent binding sites and that the binding to each site follows the law of mass action:1 %offluorescencequenched=Bmax×[TNS]/kd+[TNS] 2 %offluorescencequenched=Bmax1×[TNS]/kd1+[TNS]+Bmax2×[TNS]/kd2+[TNS] […]
PhnsL TP3 (1 µ M)and TNS (3 µ M)and the fluorescence was measured before and after the tested compounds were added at various concentrations. The results are expressed as percentage of fluorescence quenched with respect to the concentration of added compound.
The binding curves were obtained by non-linear fitting to the Michaelis-Menten equation (solid line in the graph) and the dissociation constants Kd [µ M]were obtained. All data are means ±S.E. (n = 3 biological replicates).
Supplementary Figure 25 | Analysis of number of binding sites of PhnsLTP3.
TNS displacement assay was performed at fixed concentrations of PhnsLTP3 (1 µM) and TNS (3 µM) and the fluorescence was measured before and after methyl […]

petunia flowers = test: Phenylalanine feeding: total VOC emission and total pools; format: in vivo, Petunia hybrida; settings: for Total pools / Total emission: biological replicates 1-3; for absolute increase over 2 h in VOC emission rate upon Phe feeding: 150 mM Phe, 19:00 to 22:00 h
Excerpt: Such reduction in VOC emission could be the result of diminished VOC transport across the cell wall, decreased VOC biosynthesis or both. […] Recently, we have shown that the VOC redistribution and reduction of their levels in the cuticle decrease their release from the cell and reduce carbon flux to Phe, which is the precursor for petunia VOCs[8]. […] Thus, to distinguish between the contribution of VOC transport and Phe limitation in VOC biosynthesis, control and PhnsLTP3-RNAi-R5 flowers were fed with Phe, and total VOC emission and total pools were measured from 19:00 to 22:00 h (Supplementary Fig. 20).
Floral volatile emission was analyzed by dynamic headspace collection of volatiles at 25 °C on columns containing 20 mg Porapak Q (80–100 mesh) (Sigma-Aldrich) and analyzed on an Agilent 6890N-5975B GC–MS system as described previously[7],[8],[43] with minor modifications. Briefly, emitted volatiles were collected from detached transgenic and wild-type flowers from 19:00 to 22:00 h on day 2 postanthesis. Adsorbed volatiles were eluted from collection columns with 280 μL dichloromethane containing 52 nmol of naphthalene as the internal standard. For analysis of total petal pools, 0.5 g of petal tissue from transgenic and control plants was collected at 22:00 h on day 2 postanthesis, ground to a fine powder in liquid nitrogen, and total petal pools were extracted in 5 mL of dichloromethane containing 52 nmol of internal standard (naphthalene) for 12 h at −20 °C. Samples were then warmed up, vortexed and concentrated to 200 μL under a stream of nitrogen gas before injection into GC–MS (Agilent 6890N-5975B). All GC–MS data were collected and analyzed using Agilent MSD ChemStation F.01.03.2357 software. For phenylalanine feeding, flowers from wild type and PhnsLTP3-RNAi were harvested and placed in 150 mM of phenylalanine solution. Emitted volatiles and their total petal pools were sampled every hour from 16:00 till 19:00 h and from 19:00 till 22:00 h and analyzed as described above.
Supplementary Figure 20 | Total VOC emission and their total pools in control and PhnsLTP3-RNAi petunia flowers fed with 150 mM Phe. Total VOC emission (a) and total pools (b) in wild-type (WT) and PhnsLTP3-RNAi-R5 line fed with 150 mM Phe from 19:00 to 22:00 h. Data are means ± S.E. (n = 3 biological replicates). […]
determined by two-way ANOV Awith P = 0.0086. […]

[1] = non-linear fitting to Michaelis-Menten equation (one binding site), read-out: dissociation constant Kd (PhnsLTP3)

Kd (recombinant PhnsLTP2) [µM] | Compound | Kd (recombinant PhnsLTP3; [1]) [µM] | Percentage fluorescence quenched (recombinant PhnsLTP3; VOC concentration 3 µM) | Percentage fluorescence quenched (recombinant PhnsLTP3; VOC concentration 30 µM) | Percentage fluorescence quenched (recombinant PhnsLTP3; VOC concentration 300 µM) | Percentage fluorescence quenched (recombinant PhnsLTP3; VOC concentration 1500 µM) | Percentage fluorescence quenched (recombinant PhnsLTP3; VOC concentration 3000 µM) | further results
21.8 ± 8.8 | O=C(OCc1ccccc1)c1ccccc1 [Benzylbenzoate] | 6.5 ± 2.7 | 33.25% and 16.42% and 33.70% | 72.95% and 50.76% and 70.40% |  |  |  | Percentage fluorescence quenched (recombinant PhnsLTP3; VOC concentration 1 µM): 31.47% and 9.59% and 36.79%; Percentage fluorescence quenched (recombinant PhnsLTP3; VOC concentration 5 µM): 25.37% and 28.56% and 39.27%; Percentage fluorescence quenched (recombinant PhnsLTP3; VOC concentration 12 µM): 59.42% and 53.23% and 61.87%
501 ± 35.8 | C=CC(C)(O)CCC=C(C)C (centres unmarked) [Linalool] | 299 ± 52.4 |  |  |  |  |  | 
 | OCCc1ccccc1 [2-Phenylethanol] | 395 ± 131 | 8.20% and 0.13% and 7.39% | 14.26% and 5.61% and 8.61% | 15.48% and 18.99% and 19.97% | 39.03% and 34.28% and 33.24% | 41.03% and 32.70% and 40.07% | 
114 ± 12.9 | COc1cc(C=O)ccc1O [Vanillin] | 26.3 ± 10.4 | 5.78% and 5.07% and 1.21% | 6.62% and 14.22% and 7.63% | 35.76% and 34.45% and 15.77% | 17.05% and 24.17% and 26.21% | 22.96% and 20.23% and 21.72% | 
 | N[C@@H](Cc1ccccc1)C(=O)O [Phe, L-phenylalanine] |  |  |  |  |  |  | Total pools (petunia flowers; PhLTP3-RNAi-5 + Phe, 19:00 h): 440.17 nmol g FW-1 and 381.25 nmol g FW-1 and 288.77 nmol g FW-1; Total emission (petunia flowers; PhLTP3-RNAi-5 + Phe, 20:00 h): 837.22 nmol g FW-1 h-1 and 1059.64 nmol g FW-1 h-1 and 828.44 nmol g FW-1 h-1; Total pools (petunia flowers; PhLTP3-RNAi-5 + Phe, 20:00 h): 756.94 nmol g FW-1 and 1050.75 nmol g FW-1 and 883.29 nmol g FW-1; Total emission (petunia flowers; PhLTP3-RNAi-5 + Phe, 21:00 h): 2356.48 nmol g FW-1 h-1 and 1887.30 nmol g FW-1 h-1 and 1311.64 nmol g FW-1 h-1; Total pools (petunia flowers; PhLTP3-RNAi-5 + Phe, 21:00 h): 1249.12 nmol g FW-1 and 1300.32 nmol g FW-1 and 829.02 nmol g FW-1; Total emission (petunia flowers; PhLTP3-RNAi-5 + Phe, 22:00 h): 2845.33 nmol g FW-1 h-1 and 2241.14 nmol g FW-1 h-1 and 2347.25 nmol g FW-1 h-1; Total pools (petunia flowers; PhLTP3-RNAi-5 + Phe, 22:00 h): 913.29 nmol g FW-1 and 1187.03 nmol g FW-1 and 1389.76 nmol g FW-1; absolute increase over 2 h in VOC emission rate upon Phe feeding (petunia flowers; PhnsLTP3-RNAi-R5 flowers): 1569 ± 76 nmol g FW^−1; Total pools (petunia flowers; WT + Phe, 19:00 h): 363.34 nmol g FW-1 and 564.43 nmol g FW-1 and 340.47 nmol g FW-1; Total emission (petunia flowers; WT + Phe, 20:00 h): 1481.84 nmol g FW-1 h-1 and 2333.99 nmol g FW-1 h-1 and 1404.14 nmol g FW-1 h-1; Total pools (petunia flowers; WT + Phe, 20:00 h): 885.56 nmol g FW-1 and 1126.01 nmol g FW-1 and 1295.32 nmol g FW-1; Total emission (petunia flowers; WT + Phe, 21:00 h): 1814.62 nmol g FW-1 h-1 and 2602.15 nmol g FW-1 h-1 and 2554.66 nmol g FW-1 h-1; Total pools (petunia flowers; WT + Phe, 21:00 h): 1190.78 nmol g FW-1 and 1426.22 nmol g FW-1 and 956.14 nmol g FW-1; Total emission (petunia flowers; WT + Phe, 22:00 h): 3087.41 nmol g FW-1 h-1 and 2626.99 nmol g FW-1 h-1 and 3838.92 nmol g FW-1 h-1; Total pools (petunia flowers; WT + Phe, 22:00 h): 1455.77 nmol g FW-1 and 972.77 nmol g FW-1 and 1086.37 nmol g FW-1; absolute increase over 2 h in VOC emission rate upon Phe feeding (petunia flowers; wild-type flowers): 1444 ± 298 nmol g FW^−1

Compound | Kd (recombinant PhnsLTP2) [µM] | Kd (recombinant PhnsLTP3; [1]) [µM] | Percentage fluorescence quenched (recombinant PhnsLTP3; VOC concentration 3 µM) | Percentage fluorescence quenched (recombinant PhnsLTP3; VOC concentration 30 µM) | Percentage fluorescence quenched (recombinant PhnsLTP3; VOC concentration 300 µM) | Percentage fluorescence quenched (recombinant PhnsLTP3; VOC concentration 1500 µM) | Percentage fluorescence quenched (recombinant PhnsLTP3; VOC concentration 3000 µM) | further results
COC(=O)c1ccccc1 [Methylbenzoate] | 534 ± 302 | 271 ± 91.1 | 6.48% and 6.57% (2×) | 10.07% and 16.15% and 14.94% | 37.30% and 35.09% and 38.77% | 74.64% and 66.75% and 71.33% | 78.82% and 71.40% and 74.18% | Kd (recombinant PhnsLTP3; two-binding-site fit, read-out: dissociation constant Kd1 (PhnsLTP3, two-binding-site model)): 521 ± 89.5 µM; Kd (recombinant PhnsLTP3; two-binding-site fit, read-out: dissociation constant Kd2 (PhnsLTP3, two-binding-site model)): 2 ± 1.9 µM; Percentage fluorescence quenched (%) (recombinant PhnsLTP3; VOC concentration 3 µM): 8.70% and 11.37% and 17.83%; Percentage fluorescence quenched (%) (recombinant PhnsLTP3; VOC concentration 30 µM): 3.75% and 8.76% and 8.44%; Percentage fluorescence quenched (%) (recombinant PhnsLTP3; VOC concentration 300 µM): 16.10% and 21.79% and 13.64%; Percentage fluorescence quenched (%) (recombinant PhnsLTP3; VOC concentration 1500 µM): 40.72% and 46.43% and 46.19%; Percentage fluorescence quenched (%) (recombinant PhnsLTP3; VOC concentration 3000 µM): 46.60% and 49.81% and 49.98%
O=Cc1ccccc1 [Benzaldehyde] | 344 ± 80.7 | 276 ± 59.8 | 3.47% and 6.56% and 12.79% | 19.94% and 11.97% and 16.71% | 45.75% and 56.38% and 51.72% | 74.25% and 79.55% and 80.00% | 86.84% and 86.38% and 86.21% | 
